Values after ≈ are worked out from the molar mass of the structure shown. Values joined by “and” are separate entries in the source; they are usually repeats but may differ in a detail not shown here. Equal entries are not always repeated. Where two headings read alike, the source gives them in different places.
How the values were obtained:
[1] = system: Gram-negative (GN) species; experiment: CLSI broth microdilution / agar dilution MIC, spectrum study; type: cell-based; conditions: all except E. brevis, M. catarrhalis, N. meningitidis
Procedure: (§1) CLSI broth microdilution (BMD) and anaerobic agar dilution (AD) methods were performed. Modifications of standard test methods included adding 10% human serum, adjusting the medium pH to 5, 6, and 8, and synergy was assessed by the checkerboard method. Mutational rates to R were determined at 4×.

[2] = system: Gram-positive (GP) species; experiment: as above; type: cell-based
Procedure: as §1

Corynebacterium spp. = experiment: CLSI broth microdilution MIC, spectrum study; type: cell-based
Procedure: as §1

[3] = system: E. brevis, M. catarrhalis and N. meningitidis; experiment: CLSI broth microdilution MIC, spectrum study; type: cell-based
Procedure: as §1

Enterococci = experiment: CLSI broth microdilution MIC, spectrum study; type: cell-based
Procedure: as §1

M. luteus = experiment: CLSI broth microdilution MIC, spectrum study; type: cell-based; conditions: Micrococcus luteus
Procedure: as §1

S. aureus [4] = experiment: CLSI broth microdilution MIC, spectrum study; type: cell-based; conditions: Staphylococcus aureus
Procedure: as §1

streptococci = experiment: CLSI broth microdilution MIC, spectrum study; type: cell-based
Procedure: as §1

WT isolates = experiment: MIC with 10% human serum added; type: cell-based
Procedure: as §1

[5] = Multi-dose bioavailability study, 500 mg TID; type: in vivo, healthy subjects (human)
Procedure: Multi-dose bioavailability study using FA at 500 mg TID. The pharmacokinetics of multiple oral doses of CEM-102 (sodium fusidate) 500 mg tablets in healthy subjects was evaluated. […] Blood samples for assay of plasma concentrations of CEM-102 and placebo were collected pre-dose on Day 1 and at 24, 48, 72, and 96 hours. […] Plasma concentrations of CEM-102 were assayed at MicroConstants. Inc. in San Diego, Calif., USA using a validated LC/MS/MS method with a lower limit of quantitation (LLOQ) of 20.0 ng/mL.

[6] = Dose escalation study, single and multiple doses: PK, safety, tolerability; type: in vivo, healthy adult subjects (human)
Procedure: Dose Escalation Study Using Single- and Multi-Dose FA. The pharmacokinetics (PK), safety, and tolerability of single and multiple doses of CEM-102 (sodium fusidate) were evaluated in a single-center, Phase 1, double-blind, randomized, placebo-controlled, dose-escalating study in 32 healthy adult subjects enrolled in 4 dosage groups (550, 1100, 1650, and 2200 mg). In each cohort, six subjects were to receive CEM-102 and two were to receive placebo in a single dose (Period 1) and then multiple doses BID for a total of 11 doses over 5.5 days (Period 2). The two dosing periods were separated by a seven-day washout period between the single dose in Period 1 and the first dose in Period 2.
Dosing proceeded as planned for Cohorts 1 to 3; however, Cohort 4 received only the single dose of 2200 mg (Period 1), because dose-limiting gastrointestinal intolerance was observed after multiple doses of 1650 mg BID in Cohort 3. Period 2 for Cohort 4 evaluated an initial loading dose regimen, and a second loading dose regimen was evaluated in an additional cohort (Cohort 5) per a protocol amendment.

[7] = system: methicillin-resistant S. aureus (MRSA) strain USA 300; type: cell-based, Staphylococcus aureus
Procedure: Pharmacodynamics of CEM-102 against Methicillin-Resistant Staphylococcus aureus Using In vitro Models. A hollow fiber model was used to evaluate CEM-102 resistance potential in methicillin-resistant S. aureus (MRSA) strain USA 300 (Network of Antimicrobial Resistance in Staphylococcus aureus (MRSA), Chantilly, Va.). USA 300 is a highly virulent strain of MRSA and is the most common community-associated MRSA isolate in the USA. MIC values were determined in accordance with Clinical and Laboratory Standards Institute (CLSI).
The hollow fiber model comprised a two-compartment hollow fiber model (Louie et al. Antimicrob Agents Chemother 52:2486-2496(2008)) consisting of a volume of 15 mL in the central compartment, with multiple ports for the removal of broth, delivery of antibiotics, and collection of bacterial and antimicrobial samples. […] All experiments were performed in duplicate.
Hollow fibers contain 15 ml of media was prepared and inoculated with 10^6 colony forming units (CFU)/mL USA 300 bacteria. One of three different dosing regimens of […] was then applied to the fibers: (1) […] q12h; (2) 1200 mg/ml×2, followed by […], q12h; (3) 1500 mg/ml×2, followed by […], q12h.

[8] = cited from earlier work
S. aureus [9] = conditions: cited from earlier work
[10] = system: Group A beta hemolytic Streptococcus; conditions: cited from earlier work
[11] = in the blood; cited from earlier work
Staphylococcus = conditions: cited from earlier work
[12] = Period 1 Day 1, single dose 1650 mg

CC(=O)O[C@H]1C[C@@]2(C)[C@@H](C[C@@H](O)[C@H]3[C@@]4(C)CC[C@@H](O)[C@@H](C)[C@@H]4CC[C@@]32C)/C1=C(\CCC=C(C)C)C(=O)O [FA, fusidic acid]
MIC [1]: ≥ 2 µg/mL | MIC values range [2]: 0.06 to 32 µg/mL | MIC (Corynebacterium spp.): ≤ 0.12 µg/mL | MIC [3]: 0.12 to 0.5 µg/mL | MIC range (Enterococci): 2 to 8 µg/mL | MIC (M. luteus): ≤ 0.5 µg/mL | MIC (S. aureus [4]): 0.25 µg/mL | MIC range (streptococci): 16 to 32 µg/mL | increase in MIC when 10% serum was added (WT isolates): 4 fold | Cmaxss, geometric mean (CV %) ([5]; human, in vivo, 500 mg): 145680 (25.3) ng/mL | t½ss, arithmetic mean ± SD ([5]; human, in vivo, 500 mg): approximately 19 h | Trough level ([5]; prior to dosing on Day 5, 500 mg TID): 105 µg/mL | tmax, median ([6]; Period 1 Day 1, single dose 1100 mg): 3.50 h | T1/2, harmonic mean [6, 12]: 13.9 h | tmax, median [6, 12]: 3.00 h | tmax, median ([6]; Period 2 Day 6, 1100 mg BID): 4.00 h | CL/F, mean ([6]; human, in vivo, 2200 mg): 0.924 L/h | gastrointestinal AEs after single dose ([6]; in vivo): no gastrointestinal AEs were reported | serious or life-threatening adverse events ([6]; in vivo): No serious or life-threatening adverse events (AEs) occurred | tolerability of single doses ([6]; in vivo): well tolerated | outcome of treatment ([7]; 600 mg q12h): regrowth and development of resistance by 24 h and 48 h | reduction of bacterial counts ([7]; 1200 mg×2 then 600 mg q12h): ~2 logs | time of rebound ([7]; 1200 mg×2 then 600 mg q12h): 72 h | killing ([7]; 1500 mg×2 then 600 mg q12h): over 2.5 log | resistance suppressed until ([7]; 1500 mg×2 then 600 mg q12h): > 72 h | time of rebound ([7]; 1500 mg×2 then 600 mg q12h): 144 h | Cmax in plasma at steady state ([8]; 500 mg TID, steady state after the 4th day): 140 µg/mL | Cmax in plasma ([8]; after the first day of treatment, 500 mg TID): around 30 ug/ml | oral bioavailability ([8]; oral): around 98% | MICs of resistant S. aureus strains (S. aureus [9]; FA-resistant strains): > 256 µg/mL | actual MIC (S. aureus [9]; S. aureus, without protein): < 0.25 µg/mL | MIC90 (S. aureus [9]; S. aureus): 0.12 µg/mL (≈ 0.232 µM) | MIC90 [10]: 4 to 8 µg/mL | MICs ([10]; classified as moderately susceptible): 4-16 micrograms per ml | Protein binding [11]: 95-97% and 96-98% | MIC in plasma protein (Staphylococcus): ≥ 2.5 micrograms per ml | increase of MIC in plasma protein (Staphylococcus): 8-10 fold
